The values below are quoted from earlier work in patent US8287898B2, “Compositions and methods for body weight management” (The Procter & Gamble Company, priority 2000, dated 2012).

Like-named read-outs stand apart in the source and are kept apart here.

For series [1] the following is noted: solutions infused in the duodenum or mid-gut (jejunum), or into the colon; rats, three hours of feeding.
For series [2] the following is noted: sham feeding rat model.
For series [3] the following is noted: jejunally infused neat, 0.2 mL/hr for seven hours, rats.

`N[C@@H](Cc1c[nH]c2ccccc12)C(=O)O` [tryptophan]: in series [1], the total caloric intake result was “suppressed total caloric intake”.

With `CCCCCCCC/C=C\CCCCCCCC(=O)O` [oleic acid], the total caloric intake result in series [2] (duodenally infused emulsion) is listed as “somewhat less effective”. Besides, the “total daily caloric intake” value in series [3] is reported as “significantly reduce”.

As to `CCCCC/C=C\C/C=C\CCCCCCCC(=O)O` [linoleic acid], the total caloric intake entry in series [2] (duodenally infused emulsion) was “reduce total caloric intake”; in series [2] (ileal infusion) it was “do not”. The “total daily caloric intake” value in series [3] is listed as “significantly reduce”.

For the compound `CC/C=C\C/C=C\C/C=C\CCCCCCCC(=O)O` [linolenic], the total caloric intake result in series [2] (duodenally infused emulsion) is listed as “somewhat less effective”.

Regarding `N[C@@H](Cc1ccccc1)C(=O)O` [phenylalanine], in series [1], the total caloric intake result was “suppressed total caloric intake”.
